Data as given in patent US9108930B2, “N1- and N2-carbamoyl-1,2,3-triazole serine hydrolase inhibitors and methods” (The Scripps Research Institute, priority 2011, dated 2015).
Where “and” joins values, the source holds several entries; their conditions need not be identical. Equal values may be shown once.

Assays:
[1] = target: T1, rat APEH (Rattus norvegicus, UniProt P13676); assay: Competitive ABPP, soluble fraction of rat neuroblastoma (B103) cells; assay type: biochemical
T1 construct: endogenous in cells; host or cells: B103 rat neuroblastoma cells (soluble fraction)
T1 sequence (P13676 whole entry): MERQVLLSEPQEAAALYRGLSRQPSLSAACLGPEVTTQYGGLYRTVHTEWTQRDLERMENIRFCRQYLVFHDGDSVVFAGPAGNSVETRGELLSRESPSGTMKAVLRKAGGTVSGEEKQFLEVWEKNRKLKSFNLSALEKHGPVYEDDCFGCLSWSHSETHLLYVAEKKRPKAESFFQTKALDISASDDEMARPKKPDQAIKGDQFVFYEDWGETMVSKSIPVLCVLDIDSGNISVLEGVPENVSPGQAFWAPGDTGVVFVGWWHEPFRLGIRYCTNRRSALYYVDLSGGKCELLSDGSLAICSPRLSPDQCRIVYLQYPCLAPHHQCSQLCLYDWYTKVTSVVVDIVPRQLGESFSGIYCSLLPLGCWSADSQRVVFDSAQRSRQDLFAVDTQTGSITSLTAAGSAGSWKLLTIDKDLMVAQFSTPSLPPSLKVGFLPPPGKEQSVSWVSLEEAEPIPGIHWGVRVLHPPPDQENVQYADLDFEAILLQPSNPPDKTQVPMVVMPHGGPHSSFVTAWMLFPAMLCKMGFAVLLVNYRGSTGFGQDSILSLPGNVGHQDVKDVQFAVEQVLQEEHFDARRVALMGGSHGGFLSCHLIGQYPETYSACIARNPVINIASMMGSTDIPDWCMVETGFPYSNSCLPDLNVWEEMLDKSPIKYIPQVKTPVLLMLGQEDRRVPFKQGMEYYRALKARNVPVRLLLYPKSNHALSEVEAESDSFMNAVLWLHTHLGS
Protocol: The soluble fractions of human ovarian (SKOV3), melanoma (C8161), and breast (MDA-MB-231) cancer cells, as well as rat neuroblastoma (B103) cells were treated with 30 nM AA74-1 or DMSO for 30 minutes at 37° C., after which the samples were analyzed by competitive ABPP. Inhibited APEH is highlighted with boxes. Note that other SHs detected in human and mouse proteomes were not inhibited by AA74-1.

[2] = target: T2, APEH (Mus musculus, UniProt Q8R146); assay: In vivo APEH inhibition, gel-based competitive ABPP of brain and heart; conditions: i.p., 4 h; doses 0.2-1.6 mg/kg
T2 sequence (Q8R146 1-732): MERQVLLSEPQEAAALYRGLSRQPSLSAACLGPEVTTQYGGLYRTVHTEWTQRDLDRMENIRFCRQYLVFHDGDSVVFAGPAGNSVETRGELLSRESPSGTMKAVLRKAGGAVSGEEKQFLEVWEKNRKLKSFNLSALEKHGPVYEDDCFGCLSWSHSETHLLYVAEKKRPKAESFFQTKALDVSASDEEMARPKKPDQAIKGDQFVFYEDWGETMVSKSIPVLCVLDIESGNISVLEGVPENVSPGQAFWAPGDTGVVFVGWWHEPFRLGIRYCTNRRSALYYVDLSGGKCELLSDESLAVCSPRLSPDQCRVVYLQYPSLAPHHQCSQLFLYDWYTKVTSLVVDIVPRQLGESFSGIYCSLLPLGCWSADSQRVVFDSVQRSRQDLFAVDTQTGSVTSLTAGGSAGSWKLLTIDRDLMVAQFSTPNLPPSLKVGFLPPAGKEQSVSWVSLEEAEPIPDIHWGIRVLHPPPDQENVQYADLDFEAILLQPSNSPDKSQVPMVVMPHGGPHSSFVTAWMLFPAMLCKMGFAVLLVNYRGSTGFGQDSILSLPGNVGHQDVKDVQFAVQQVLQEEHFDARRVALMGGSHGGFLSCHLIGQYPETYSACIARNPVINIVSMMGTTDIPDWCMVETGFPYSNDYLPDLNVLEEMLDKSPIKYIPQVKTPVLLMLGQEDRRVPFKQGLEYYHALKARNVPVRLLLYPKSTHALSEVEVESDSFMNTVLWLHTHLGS
Protocol: The potency and selectivity of 1,2,3-triazole ureas in vivo also was investigated. Mice were treated with the APEH inhibitor AA74-1 at various doses (0.2-1.6 mg/kg; PEG300 or 18:1:1 saline/ethanol/emulphor intraperitoneally) and sacrificed after 4 h. Brains and hearts were removed, homogenized, and analyzed by gel-based competitive ABPP. […] Finally, the possibility of extending ABPP-SILAC for the characterization of inhibitor selectivity in vivo was explored by taking advantage of recently described protocols for stable isotope labeling in mammals (SILAM). In this approach, brain tissues from vehicle- and AA74-1-treated mice were separately mixed with equivalent amounts of brain tissue from ‘heavy’ amino acid-fed mice, and the samples were then labeled with FP-biotin, enriched by avidin chromatography, analyzed by LC-MS, and SH activities quantified by measuring the ratio-of-ratios for observed peptide signals. […] The ratio-of-ratio signals for APEH indicated greater than 90% inhibition of this enzyme in AA74-1-treated animals (FIG. 5b, top), consistent with average spectral count values (14 and 1 spectral counts for APEH in vehicle-treated versus AA74-1-treated mice, respectively; FIG. 5b, bottom). […] ACHE, an enzyme that is targeted by other reported NHU inhibitors, was not inhibited by AA74-1 in either mouse brain (FIG. 5b) or transfected cell (FIG. 16) proteomes. […]

[3] = tested on: N-terminally modified proteins (APEH substrates) in mouse T-cells; assay: SILAC-based N-terminal labeling and enrichment in mouse T-cells
[4] = tested on: serine hydrolases (SHs) in mouse T-cell proteomes; assay: Gel-based competitive ABPP, mouse T-cell proteomes in vitro, SH reactivity profile; assay type: biochemical; conditions: 100 nM, 30 minutes at 37° C.
[5] = target: T2, APEH; assay: ABPP-SILAC in living mouse T-cells; conditions: 3 nM inhibitor, 4 h
[6] = tested on: serine hydrolases (SHs) in mouse brain and heart; assay: In vivo selectivity across SHs in tissues of treated mice (gel-based ABPP, ABPP-SILAM)
Protocol: The potency and selectivity of 1,2,3-triazole ureas in vivo also was investigated. Mice were treated with the APEH inhibitor AA74-1 at various doses (0.2-1.6 mg/kg; PEG300 or 18:1:1 saline/ethanol/emulphor intraperitoneally) and sacrificed after 4 h. Brains and hearts were removed, homogenized, and analyzed by gel-based competitive ABPP. […] Finally, the possibility of extending ABPP-SILAC for the characterization of inhibitor selectivity in vivo was explored by taking advantage of recently described protocols for stable isotope labeling in mammals (SILAM). In this approach, brain tissues from vehicle- and AA74-1-treated mice were separately mixed with equivalent amounts of brain tissue from ‘heavy’ amino acid-fed mice, and the samples were then labeled with FP-biotin, enriched by avidin chromatography, analyzed by LC-MS, and SH activities quantified by measuring the ratio-of-ratios for observed peptide signals. […] The ratio-of-ratio signals for APEH indicated greater than 90% inhibition of this enzyme in AA74-1-treated animals (FIG. 5b, top), consistent with average spectral count values (14 and 1 spectral counts for APEH in vehicle-treated versus AA74-1-treated mice, respectively; FIG. 5b, bottom). […] ACHE, an enzyme that is targeted by other reported NHU inhibitors, was not inhibited by AA74-1 in either mouse brain (FIG. 5b) or transfected cell (FIG. 16) proteomes.

[7] = target: T3, ABHD6 (Mus musculus, UniProt Q8R2Y0); assay: In situ inhibition in Neuro2A cells, competitive ABPP; assay type: cell-based; conditions: 4 hours, same dose as used for DAGLB by KT109 and KT172
T3 sequence (Q8R2Y0 1-336): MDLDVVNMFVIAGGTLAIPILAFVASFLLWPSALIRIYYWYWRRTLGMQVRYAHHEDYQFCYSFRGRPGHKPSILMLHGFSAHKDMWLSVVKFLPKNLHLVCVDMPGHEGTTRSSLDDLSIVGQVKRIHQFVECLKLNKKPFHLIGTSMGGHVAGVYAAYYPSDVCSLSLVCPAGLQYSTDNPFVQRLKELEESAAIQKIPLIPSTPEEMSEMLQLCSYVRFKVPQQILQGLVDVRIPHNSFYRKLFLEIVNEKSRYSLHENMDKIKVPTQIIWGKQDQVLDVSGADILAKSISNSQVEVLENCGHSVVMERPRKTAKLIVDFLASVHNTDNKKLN
Protocol: For gel-based competitive ABPP studies, proteomes from cells treated in situ with inhibitor for 4 h at 37° C. at the indicated concentrations (n=3) were labeled with HT-01 (1 μM) for 30 min at 37° C. After quenching, SDS-PAGE, and in-gel visualization, the percentage of enzyme activity remaining was determined by measuring the integrated optical intensity of the bands using IMAGER® software. For LC-MS substrate assays, the percentage of enzyme activity remaining was determined by comparing the specific activity (amount of 2-AG formed per min per mg of proteome) of inhibitor with DMSO-treated samples. The IC50 values were determined from a dose-response curve generated using GraphPad PRISM® software.

Compound | IC50 [1] [nM] | dose (as low as) giving complete inhibition of APEH in brain and heart [2] [mg/kg] | changes in N-terminal labeling signals of five N-terminally acetylated proteins ([3]; 1 nM) [fold] | number of proteins with consistent two-fold or greater reductions in N-terminal labeling signals ([3]; 1 nM versus DMSO) [proteins] | cross-reactivity with other SHs [4] | APEH activity blocked [5] | SHs inhibited among 44 SHs identified in brain (ABPP-SILAM) ([6]; 0.8 mg/kg, i.p.) | additional SH targets by gel-based ABPP ([6]; brain and heart, 0.2-1.6 mg/kg i.p., 4 h) | inactivation of ABHD6 in Neuro2A cells [7]
CC(C)CC(O)(CC(C)C)c1cnn(C(=O)N2CCCC2)n1 [AA74-1] | 7 | 0.4 | 2.5 to 4.6 | 25 | not interacting with other SHs | > 95% and > 97% | only APEH was inhibited | No additional SH targets were observed | 
COc1ccc(-c2ccc(-c3cn(C(=O)N4CCCCC4c4ccccc4)nn3)cc2)cc1 (stereo not drawn) [KT195] |  |  |  |  |  |  |  |  | completely inactivating ABHD6
